Assay results as given in patent publication US20240174727A1, “LONG-ACTING NATRIURETIC PEPTIDES AND USES THEREOF” (Eli Lilly and Company, priority 2022, published 2024).
Numbered stars: 1 amine (or outer) side, 2 acyl side, 3 side chain; on linkers, the order of the positions; unused ones are H or OH. Bridge positions count the residues as written; N and C are the ends. Square brackets hold non-standard residues; d marks the D form. * marks the point of attachment. PEG24 = NCCOCCOCCOCCOCCOCCOCCOCCOCCOCCOCCOCCOCCOCCOCCOCCOCCOCCOCCOCCOCCOCCOCCOCCOCCC(=O)O; C20 diacid = O=C(O)CCCCCCCCCCCCCCCCCCC(=O)*; γGlu = O=C(O)[C@H](CCC(=O)[*:2])N[*:1]; 4Pal = N[C@@H](Cc1ccncc1)C(=O)O; Dap = NC[C@H](N)C(=O)O; CH2 = C([*:1])[*:2]

Legend:
[1] = Pharmacokinetics in male Sprague Dawley rats; assay type: in vivo; settings: rat, sc, mean, single subcutaneous administration of 200 nMol/kg, plasma; for half-life: read-out: t½ (converted)
Experimental: The pharmacokinetics of the exemplary analogs are evaluated following a single subcutaneous administration of […] to male Sprague Dawley rats. Blood samples are collected over 120 hours, and resulting individual plasma concentrations are used to calculate pharmacokinetic parameters. Peptide plasma (K3 EDTA) concentrations are determined using a qualified LC/MS method that measured the intact mass of the ANP polypeptide. Each peptide and an analog as an internal standard are extracted from 100% specie specified plasma using methanol with 0.1% formic acid. A Thermo Q-Exactive, High Resolution Instrument, and a Thermo Easy Spray PepMap are combined for LC/MS detection.

plasma cGMP = experiment: In vivo monkey studies, plasma cGMP ELISA; set-up: species or system male cynomolgus monkeys; settings: for Net cGMP (nM) Change from Baseline 0.083 h: 0.083 h postdose; for Net cGMP (nM) Change from Baseline 0.083 h / Net cGMP (nM) Change from Baseline 0.25 h / Net cGMP (nM) Change from Baseline 0.5 h / Net cGMP (nM) Change from Baseline 1 h / Net cGMP (nM) Change from Baseline 2 h / Net cGMP (nM) Change from Baseline 4 h / Net cGMP (nM) Change from Baseline 8 h / Net cGMP (nM) Change from Baseline 12 h / Net cGMP (nM) Change from Baseline 24 h / Net cGMP (nM) Change from Baseline 36 h / Net cGMP (nM) Change from Baseline 48 h / Net cGMP (nM) Change from Baseline 72 h / Net cGMP (nM) Change from Baseline 96 h / Net cGMP (nM) Change from Baseline 120 h / Net cGMP (nM) Change from Baseline 144 h / Net cGMP (nM) Change from Baseline 168 h: monkey plasma; for Net cGMP (nM) Change from Baseline 0.25 h: 0.25 h postdose; for Net cGMP (nM) Change from Baseline 0.5 h: 0.5 h postdose; for Net cGMP (nM) Change from Baseline 1 h: 1 h postdose; for Net cGMP (nM) Change from Baseline 2 h: 2 h postdose; for Net cGMP (nM) Change from Baseline 4 h: 4 h postdose; for Net cGMP (nM) Change from Baseline 8 h: 8 h postdose; for Net cGMP (nM) Change from Baseline 12 h: 12 h postdose; for Net cGMP (nM) Change from Baseline 24 h: 24 h postdose; for Net cGMP (nM) Change from Baseline 36 h: 36 h postdose; for Net cGMP (nM) Change from Baseline 48 h: 48 h postdose; for Net cGMP (nM) Change from Baseline 72 h: 72 h postdose; for Net cGMP (nM) Change from Baseline 96 h: 96 h postdose; for Net cGMP (nM) Change from Baseline 120 h: 120 h postdose; for Net cGMP (nM) Change from Baseline 144 h: 144 h postdose; for Net cGMP (nM) Change from Baseline 168 h: 168 h postdose; for net cGMP levels (result in words): monkeys, single SC dose, plasma
Experimental: In vivo monkey studies were conducted as described in detail below. Young adult-to-adult male cynomolgus monkeys were given a single dose subcutaneously (SC). Blood was collected predose and at various pre-determined timepoints throughout the study period. Aliquot of cynomolgus monkey plasma was received for cyclic cGMP (cGMP) measurement and stored at −80° C. prior to use.
Control plasma was made for determining the recovery rate of spike-in cGMP using Enzo cGMP complete ELISA kit (Enzo Life Sciences, Inc, Farmingdale, NY, cat no. ADI-901-164). Briefly, blood from male Sprague Dawley rats (Inotiv, Indianapolis, IN), about 7 months old, was collected in a BD Vacutainer EDTA tube (Becton Dickinson, Franklin Lakes, NJ, cat no. BD-367856) with volume of approximate 4 mL through retro orbital bleeding. Plasma was prepared by spinning the tube in an Eppendorf Refrigerated Centrifuge 5810R (Brinkman Instruments, Inc, Westbury, NY) at 3500 rpm (3000×g) for 10 min at 4° C. Plasma was collected as Positive Control plasma. Cyclic GMP (cGMP standard from Enzo cGMP complete ELISA kit) was added to the positive control plasma at a final concentration of additional 40 nM. Positive Control and Spiked-in Control plasma were aliquoted and stored at −80° C.
The cGMP content was measured using the Enzo cGMP complete ELISA kit following the manufacturer's directions with modifications as described below. The cGMP standards provided in the kit were diluted 1:3 ranging from 50 nM to 0.023 nM in 1× assay buffer that was diluted in water from 2× assay buffer provided in the kit. The cGMP standards ([…]) were transferred to a 96-well polypropylene plate (Thermo Scientific, cat no. 442587).
Plasma samples were thawed from −80° C. and diluted 1:20 in 1× assay buffer in the above plate with a final volume of 150 μL. Assay buffer was added (150 μL) for both a non-specific binding control (in the absence of cGMP antibody) and a maximum binding control (in the absence of competing cGMP) in duplicate wells. Positive Control and Spiked-in Control plasma were diluted 1:20 in 1× assay buffer with a final volume of 150 μL in duplicate wells of the above plate. All diluted plasma was mixed by pipetting up and down several times.
Acetylation reagent mix was prepared by adding 1-part of acetic anhydride into 2-parts of triethylamine provided in the kit and mixing well using Vortex (Scientific Industries, Inc, Bohemia, NY). All controls, standards, and plasma samples were acetylated by adding 15 μL of acetylation reagent mix into the plate, one column at a time, and shaking for 1 min on a Titer Plate Shaker (Lab-Line Instrument, Inc., Melrose Park, IL) at room temperature. The plate was shaken for an additional 1 min following the acetylation of the last column to ensure the reaction was completed.
Acetylated controls, standard and plasma samples were transferred (100 μL) to an ELISA plate (n=1). Then 50 μL of cGMP conjugate were added to each well followed by the addition of 50 μL cGMP antibody to each well except for two non-specific binding wells, in which 50 μL of 1× assay buffer were added. The plate was then sealed and shaken for 2 h at room temperature on the plate shaker. Following this incubation, the plate was washed five times using 200 μL of 1× wash buffer diluted in water from 5× wash buffer provided in the kit. Then, 200 μL of para-Nitrophenylphosphate (pNpp) were added to each well. The plate was sealed with a new plate sealer and shaken in dark for 1 h at room temperature on the plate shaker. Finally, 50 μL of stop solution were added to each well to stop the enzyme reaction. The plate was then read at 405 nm using SpectraMax Plus (Molecular Devices, San Jose, CA).
The mean absorbance at 405 nm (O.D. 405 nm) for the non-specific binding controls was subtracted from the O.D. 405 nm of all samples. The subtracted O.D. 405 nm of all samples were then normalized with the mean subtracted O.D. 405 nm of the maximum binding controls as B/B0%. […]

Row | Compound | CL/F [1] [mL/min/kg] | half-life [1] [h] | Net cGMP (nM) Change from Baseline 0.083 h (plasma cGMP; dose 100 nmol/kg) [nM] | Net cGMP (nM) Change from Baseline 0.25 h (plasma cGMP; dose 100 nmol/kg) [nM] | Net cGMP (nM) Change from Baseline 0.5 h (plasma cGMP; dose 100 nmol/kg) [nM] | Net cGMP (nM) Change from Baseline 1 h (plasma cGMP; dose 100 nmol/kg) [nM] | Net cGMP (nM) Change from Baseline 2 h (plasma cGMP; dose 100 nmol/kg) [nM] | Net cGMP (nM) Change from Baseline 4 h (plasma cGMP; dose 100 nmol/kg) [nM] | Net cGMP (nM) Change from Baseline 8 h (plasma cGMP; dose 100 nmol/kg) [nM] | Net cGMP (nM) Change from Baseline 12 h (plasma cGMP; dose 100 nmol/kg) [nM] | Net cGMP (nM) Change from Baseline 24 h (plasma cGMP; dose 100 nmol/kg) [nM] | Net cGMP (nM) Change from Baseline 36 h (plasma cGMP; dose 100 nmol/kg) [nM] | Net cGMP (nM) Change from Baseline 48 h (plasma cGMP; dose 100 nmol/kg) [nM] | Net cGMP (nM) Change from Baseline 72 h (plasma cGMP; dose 100 nmol/kg) [nM] | Net cGMP (nM) Change from Baseline 96 h (plasma cGMP; dose 100 nmol/kg) [nM] | Net cGMP (nM) Change from Baseline 120 h (plasma cGMP; dose 100 nmol/kg) [nM] | Net cGMP (nM) Change from Baseline 144 h (plasma cGMP; dose 100 nmol/kg) [nM] | Net cGMP (nM) Change from Baseline 168 h (plasma cGMP; dose 100 nmol/kg) [nM] | net cGMP levels (result in words) (plasma cGMP) | further results
1 | {C20 diacid-γGlu}-EKEKEKG[PEG24]S[4Pal]RRSSCFGGRIDRIGHQSGLGCPSFRHGGPSSGAPPPS-NH2 (linker 15-31 via CH2) [Example 61] | 1.08 | 6 | 4.41 | 24.85 | 27.32 | 28.35 | 25.21 | 28.38 | 33.73 | 23.51 | 27.96 | 24.75 | 11.81 | 14.82 | 20.25 | 12.15 | 18 | 11.81 | increased net cGMP levels | 
2 | {C20 diacid-γGlu}-EKEKEKGS[4Pal]RRSSCFGGRIGRIGHQSGLGCPSFRHGGPSSGAPPPS-NH2 (disulfide 14-30) [Example 29] | 0.545 | 12 | 2.13 | 3.52 | 9.03 | 10.14 | 15.28 | 17.75 | 26.8 | 28.52 | 31.75 | 32.52 | 21.75 | 12.46 | 12.31 | 8.52 | 8.28 | 4.1 | increased net cGMP levels | 
3 | CC[C@H](C)[C@@H]1NC(=O)[C@H](CCCNC(=N)N)NC(=O)[C@H](CC(=O)O)NC(=O)[C@H]([C@@H](C)CC)NC(=O)[C@H](CCCNC(=N)N)NC(=O)[C@H](CCCCN)NC(=O)CNC(=O)[C@H](Cc2ccccc2)NC(=O)[C@@H](NC(=O)[C@H](CO)NC(=O)[C@H](CO)NC(=O)[C@H](CCCNC(=N)N)NC(=O)CCNC(=O)[C@H](CCCCN)NC(=O)[C@H](CCC(=O)O)NC(=O)COCCOCCNC(=O)COCCOCCNC(=O)COCCOCCNC(=O)COCCOCCNC(=O)COCCOCCNC(=O)COCCOCCNC(=O)CNC(=O)[C@H](CCCCN)NC(=O)[C@H](CCC(=O)O)NC(=O)[C@H](CCCCN)NC(=O)[C@H](CCC(=O)O)NC(=O)[C@H](CCCCN)NC(=O)[C@H](CCC(=O)O)NC(=O)CC[C@H](NC(=O)CCCCCCCCCCCCCCCCCCC(=O)O)C(=O)O)CSCSC[C@@H](C(=O)N2CCC[C@H]2C(=O)N[C@@H](CO)C(=O)N[C@@H](Cc2ccccc2)C(=O)N[C@@H](CCCNC(=N)N)C(=O)N[C@@H](Cc2c[nH]cn2)C(=O)NCC(=O)NCC(=O)N[C@@H](CCCCN)C(=O)N[C@@H](CO)C(=O)N[C@@H](CO)C(=O)NCC(=O)N[C@@H](C)C(=O)N2CCC[C@H]2C(=O)N2CCC[C@H]2C(=O)N2CCC[C@H]2C(=O)N[C@@H](CO)C(N)=O)NC(=O)CNC(=O)[C@H](CC(C)C)NC(=O)CNC(=O)[C@H](CO)NC(=O)[C@H](CCC(N)=O)NC(=O)[C@H](Cc2c[nH]cn2)NC(=O)CNC1=O [Example 89] |  |  | 6.83 | 20.73 | 33.07 | 35.04 | 36.11 | 42.86 | 36.71 | 33.87 | 30.9 | 24.59 | 16.29 | 15.56 | 12.74 | 18.95 | 12.03 | 8.03 | increased net cGMP levels | 
4 | {C20 diacid-γGlu}-EKEKEKGEKPRSSCFG[Dap]RIDRIGHYSGLGCPSFRHGSPSSGAPPPS-NH2 (linker 14-30 via CH2) [Example 136] |  |  |  |  |  |  |  |  |  |  |  |  |  |  |  |  |  |  | increased net cGMP levels | Net cGMP (nM) Change from Baseline 0.083 h (plasma cGMP; dose 50 nmol/kg): 3.25 nM; Net cGMP (nM) Change from Baseline 0.25 h (plasma cGMP; dose 50 nmol/kg): 12.48 nM; Net cGMP (nM) Change from Baseline 0.5 h (plasma cGMP; dose 50 nmol/kg): 20.78 nM; Net cGMP (nM) Change from Baseline 1 h (plasma cGMP; dose 50 nmol/kg): 12.12 nM; Net cGMP (nM) Change from Baseline 2 h (plasma cGMP; dose 50 nmol/kg): 9.42 nM; Net cGMP (nM) Change from Baseline 4 h (plasma cGMP; dose 50 nmol/kg): 8.76 nM; Net cGMP (nM) Change from Baseline 8 h (plasma cGMP; dose 50 nmol/kg): 7.65 nM; Net cGMP (nM) Change from Baseline 12 h (plasma cGMP; dose 50 nmol/kg): 7.65 nM; Net cGMP (nM) Change from Baseline 24 h (plasma cGMP; dose 50 nmol/kg): 11.83 nM; Net cGMP (nM) Change from Baseline 36 h (plasma cGMP; dose 50 nmol/kg): 11.18 nM; Net cGMP (nM) Change from Baseline 48 h (plasma cGMP; dose 50 nmol/kg): 5.65 nM; Net cGMP (nM) Change from Baseline 72 h (plasma cGMP; dose 50 nmol/kg): 2.61 nM; Net cGMP (nM) Change from Baseline 96 h (plasma cGMP; dose 50 nmol/kg): 2.05 nM; Net cGMP (nM) Change from Baseline 120 h (plasma cGMP; dose 50 nmol/kg): 2.71 nM; Net cGMP (nM) Change from Baseline 144 h (plasma cGMP; dose 50 nmol/kg): 3.72 nM; Net cGMP (nM) Change from Baseline 168 h (plasma cGMP; dose 50 nmol/kg): 3.36 nM
